Values of other authors, collected in patent publication US20230128032A1, “Early Drug Interventions to Reduce COVID-19 Related Respiratory Distress, Need for Respirator Assist and Death” (Curtails LLC, priority 2020, published 2023).
Bridges are numbered along the chain shown (N, C = ends). Where no end group is shown, it is not given here.

What was measured:
[1] = test system: patients with pulmonary arterial hypertension; conditions: racecadotril treatment
[2] = test system: patients with acute lung injury; conditions: intravenous infusion, mechanical ventilation with positive end-expiratory pressure
mice = conditions: ANP pretreatment
isolated perfused lung = conditions: increased capillary pressure, hypoxia or inflammatory stimuli such as detergents or prostaglandins
[3] = test system: intensive care patients without heart disease

Compound | increase in plasma cGMP levels [1] | increase in the plasma ANP concentration [1] | reduction in pulmonary vascular resistance [1] | pulmonary oedema induced by lung ischaemia-reperfusion injury (rodents) | lung injury score [2] | pulmonary gas exchange [2] | lung injury, inflammation and endothelial barrier dysfunction induced by gram-negative bacterial wall LPS or Staphylococcus Aureus infection (mice) | pulmonary oedema induced by congestive heart failure (dogs) | anti-oedematic action in isolated perfused lung (isolated perfused lung) | pulmonary oedema [3]
CC(=O)SCC(Cc1ccccc1)C(=O)NCC(=O)OCc1ccccc1 (stereo not shown) [racecadotril] | 106% | 79% | 14% |  |  |  |  |  |  | 
ANP: synthetic form of the GC-A agonist peptide atrial natriuretic peptide (SLRRSSCFGGRMDRIGAQSGLGCNSFRY; disulfide 7-23; ends not checked; UniProt P01160 124-151, looked up) |  |  |  | attenuated | improved | improved | protected | attenuated | direct anti-oedematic action | diminished
